System: Staphyloccoccus aureus, strain ATCC23273
Experiment: Colony forming units in agar BHI of samples from the bactericidal/bacteriostatic test
Assay type: cell-based, Staphylococcus aureus
Design: key to Colony forming unites (CFU) in agar BHI: i = uncountable
Method: The bactericidal/bacteriostatic effect of the propolis nanoparticles, of nanoencapsulated arithromycin in propolis extract and of pure arithromycin was determined in vitro against samples of Staphylocossus aureus (strain ATCC23273) cultivated in Mueller Hinton culture broth, according to Table 3. Since azithromycyn is a bacteriostatic antibiotic, the samples of the different dilutions were used to determine the core of colony forming units (UFC) in agar BHI (brain-heart-infusion), and thereby determine the bactericidal/bacteriostatic effect shown in Table 4.

## CC[C@H]1OC(=O)[C@H](C)[C@@H](O[C@H]2C[C@@](C)(OC)[C@@H](O)[C@H](C)O2)[C@H](C)[C@@H](O[C@@H]2O[C@H](C)C[C@H](N(C)C)[C@H]2O)[C@](C)(O)C[C@@H](C)CN(C)[C@H](C)[C@@H](O)[C@]1(C)O [A, azithromycin]
From broth test and CFU count
  concentration with bactericidal effect on Staphylococcus aureus: ≥ 128 µg/mL
Origin tube 4
  Colony forming unites (CFU) in agar BHI: i
Origin tube 8
  Colony forming unites (CFU) in agar BHI: 30 UFC
Origin tube 16
  Colony forming unites (CFU) in agar BHI: 3 UFC
Origin tube 32
  Colony forming unites (CFU) in agar BHI: 1 UFC
Origin tube 64
  Colony forming unites (CFU) in agar BHI: 1 UFC
Origin tube 128
  Colony forming unites (CFU) in agar BHI: 0 UFC
Origin tube 512
  Colony forming unites (CFU) in agar BHI: 0 UFC
Origin tube 526
  Colony forming unites (CFU) in agar BHI: 0 UFC
